{"source": "patent US11571485B2", "about": "“Peptides and antibodies for detecting changes in alzheimer's disease brain and methods of use thereof” (Sanford Burnham Prebys Medical Discovery Institute, priority 2016, dated 2023)", "key": {"[1]": {"system": "AD and WT mouse brain sections", "test": "Overlay binding of peptide-coated silver nanoparticles on frozen mouse brain sections", "text": "CASPRLSKC recognizes the AD hippocampus in tissue section overlay assay. Silver nanoparticles were coated with the CASPRLSKC peptide or a control peptide and used to overlay brain sections from AD and normal mice. Silver staining was used to visualize binding and nuclei were stained with nuclear fast red. The CASPRLSKC nanoparticles bind to elongated structures that may represent nerve fibers. These structures are not present in the normal brain.\nBinding of DAG conjugated silver nanoparticles on frozen brain sections from AD or WT animals in overlay binding assay was also tested. […] This binding is restricted to the hippocampal region CA1 and the dentate gyms. Frozen coronal sections from AD and WT mice were used for overlay experiments with DAG-AgNPs. Silver staining was used to visualize binding and nuclei were stained with nuclear fast red.\nSilver nanoparticles (AgNPs) with PEG coating and peptide functionality were prepared as reported previously with some modifications (Braun et al., Nature materials 13, 904-911 (2014)). AgNPs of ˜35 nm diameter were synthesized by citrate acid reduction of silver nitrate in solution. First, AgNO3 (450 mg) dissolved in 2.5 L water was stirred and heated to a boil and 50 mL water containing trisodium citrate dihydrate (500 mg, Sigma) was added. After 30 min the solution was cooled to room temperature. The resulting optical density at 405 nm was ˜10. […]"}, "[2]": {"system": "human iPS cell-derived endothelial cells (ECs) from an AD patient", "test": "AgNP binding to hiPSC-derived brain endothelial cells", "type": "cell-based", "details": "for Binding to AD patient iPS cell-derived endothelial cells: AD patient vs normal donor cells", "text": "Human iPS cell-derived from an AD patient and from a normal individual were differentiated into endothelial cells and the cultured cells were used in an overlay assay with DAG-coated and control AgNP.\nThe details of human induced pluripotent stem cells (hiPSCs) derived from Alzheimer disease patients with APP duplication, and non-demented control individuals, are described previously (Israel et al., Nature 482, 216-220 (2012)). These hiPSCs were extensively characterized and have been established as an excellent human model for AD. An additional AD hiPSC line generated from dermal fibroblasts from an individual harboring a Presenilinl (PSEN1) mutation (Coriell Institute, Cat #AG06840) was used to further validate the results from the APP lines. hiPSCs were routinely maintained on mouse embryonic fibroblast as described before (Lin et al., Nat Methods 6, 805-808 (2009); Talantova et al., Proc Natl Acad Sci USA 110, E2518-2527 (2013)). Brain microvascular endothelial cells differentiation of hiPSCs was performed using a previously described protocol (Lippmann et al., Nature biotechnology 30, 783-791 (2012), with minor modifications. Briefly, feeder-free cultures of hiPSCs were allowed to spontaneously differentiate in the absence of bFGF for 5-7 days, and then transferred to Endothelial cell (EC) medium composed of human Endothelial Serum-Free Medium™ (Invitrogen) supplemented with 20 ng/ml bFGF and 1% platelet-poor plasma-derived bovine serum (PDS; Biomedical Technologies). After 1-2 days the cells were dissociated with dispase (2 mg/ml) and were plated on 12 well plates coated with a mixture of collagen IV (400 μg/ml) and fibronectin (100 μg/ml). Cells were then cultured in EC medium until they reached confluence, after which they were split and expanded to near 100% purity. BBB-type EC identity was confirmed by flow cytometry or double immunoreactivity to the hallmark efflux transporter p-glycoprotein and other EC markers (CD31, GLUT-1, PECAM, Occludin, and Claudin-5). Furthermore, the capability of these cells to make functional tight junctions and polarized efflux activity was validated using a dual chamber efflux transport assay as described before.\n(§1) Cell binding experiments on U251 cells and hiPSCs were with done using peptide conjugated AgNP. U251 cells were cultured in a 96-well plate. The cells were blocked with 200 μl of 10% FCS in HBSS (Hanks' Balanced Salt Solution from Gibco) for 30 min at 37° C. Following that, DAG-AgNPs (0.5 nM concentration diluted in HBSS) alone or in the presence of free non-labeled peptide (200 μM) were incubated on the cells for 1 hour at 37° C. After washing the unbound AgNP with HBSS three times, the plates were imaged with fluorescent microscopy by looking at intrinsic emission from the FAM tag on the peptide. hiPSCs were cultured in 48 well plate and similar protocol as described above was followed, with the exception that AgNP concentration for incubation was kept at 0.15 nM. Nanoparticle binding was quantified from fluorescence micrographs using ImageJ™ software."}, "[3]": {"system": "human astrocytoma U251 cells", "test": "AgNP binding to U251 cells", "type": "cell-based", "method": "FIG. 7 is a graphical representation showing quantity of DAG-coated silver nanoparticles (DAG-AgNPs) binding to human astrocytoma U251 cells. Cultured U251 cells were incubated with DAG-AgNPs alone, in the presence of free non-labeled control peptide, or an excess of free, non-labeled DAG (both at 200 μM), for 1 hour at 37° C. Nanoparticle binding was quantified from fluorescence micrographs using ImageJ™ software. Scale bar, 20 μm.\nas §1"}, "human AD brain sections": {"system": "human AD brain sections", "test": "Ex vivo overlay binding to human AD brain sections", "details": "overlay", "method": "PFA fixed sections were incubated in PBS for 10 minutes, followed by PBS-Triton-x-100 (0.2%) for 10 minutes. Sections were rinsed with PBST, mounted in a slide holder, and subsequently washed with PBS-T during 12 minutes. Slides were blocked with blocking buffer for 60 minutes at room temperature. Then, peptides were incubated at a concentration of 10 μg/mL dissolved in concentrated blocking buffer, for three hours at room temperature. Sections were then washed with three 4-minute washes of PBS-T, and subsequently fixed with PFA for 10 minutes, followed by three 3-minute washes with PBS-T. Sections were then incubated with primary antibody at 1/200 in diluted blocking buffer overnight at 4° C. Later, sections were washed with three 4-minute washes with PBS-T. Slides were then incubated with secondary antibody at 1/200 dilution in diluted blocking buffer for 30 minutes at room temperature, followed by three 4-minute washes of PBS-T. Sections were then counterstained with DAPI for 5 minutes, washed with PBS-T and mounted.\nPostmortem human brain samples were obtained from the New York Brain Bank at Columbia University, New York. The patient was a person with a diagnosis of AD neuropathologic changes ([A3, B3, C3]). The normal brain tissue was obtained from BioChain Institute Inc. (Newark, Calif.). The donor was a person without any neurologic diagnosis on detailed neuropathologic evaluation. The Parkinson's disease brain tissue was obtained from UCSD Pathology bank. Frozen brain tissue was sectioned for immunohistochemistry and ex vivo overlay binding with FAM-peptides."}}, "note": "“Also recorded” adds a separate entry of the source. Where no end group is shown, it is not given here.", "data": [{"substance": "DAG-AgNPs: DAG-coated silver nanoparticles with PEG coating, FAM-cys-x-DAG-NH2 attached (CDAGRKQKC-NH2; not fully specified (N-terminus); also: attached via extra Cys thiol to maleimide-PEG on silver nanoparticles)", "values": [{"measurement": "Binding to AD brain sections compared to age-matched wild-type brain sections", "setting": "[1]; frozen brain sections, overlay binding assay", "value": "over 10 fold"}, {"measurement": "Binding to hippocampal CA1 region in AD brains versus WT brains", "setting": "[1]; frozen coronal sections, hippocampal CA1 region", "value": 14, "unit": "fold"}, {"measurement": "Inhibition of AgNP binding by free DAG peptide", "setting": "[2]; 200 μM free non-labeled DAG", "value": "inhibited by the presence of free DAG peptide"}, {"measurement": "Binding to AD patient iPS cell-derived endothelial cells", "setting": "[2]", "value": "bind to human iPS cell-derived endothelial cells (ECs) from an AD patient, but not to ECs derived from a normal donor; also recorded: binding to human IPS cell-derived endothelial cells (ECs) from an AD patient, but not to ECs derived from a normal donor"}, {"measurement": "Binding to AD patient iPS cell-derived endothelial cells", "setting": "[2]; listed as DAG-AgNP", "value": "high binding"}, {"measurement": "Binding to U251 cells", "setting": "[3]; 1 hour at 37° C.", "value": "bound robustly to these cells, much more so than non-targeted nanoparticles"}, {"measurement": "Inhibition of binding to U251 cells by free DAG", "setting": "[3]; excess free non-labeled DAG, 200 μM", "value": "inhibited by co-incubation with an excess of free, non-labeled DAG"}, {"measurement": "Binding to human AD brain sections", "setting": "human AD brain sections", "value": "bind to sections from an AD patient with sporadic AD"}]}]}
